How the values were obtained:
[1] = biological target: T1, Aβ40 peptides (Homo sapiens, UniProt P05067); test: Complexation of Aβ40 with bexarotene (UV absorbance titration at 280 nm); assay type: binding; conditions: 156 μM Aβ40 in ammonium acetate titrated with 20 aliquots of 142 μM bexarotene; absorbance at 280 nm vs sum of individual absorbances
T1 construct: host or cells: E. coli BL21(DE3)
Experimental: This addition was repeated 20 times.
Complexation of Aβ40 with bexarotene. To determine the extinction coefficient of bexarotene at 280 nm, we measured the absorbance of bexarotene at 14 gradually decreasing concentrations (Fig. S2A). The stock solution of bexarotene (0.2 mM) was diluted in ammonium acetate to achieve the desired concentrations. Then, the correlation between absorbance and bexarotene concentration was plotted and the extinction coefficient was obtained from the slope of the best linear regression fit (ε280 = 10370 ± 83 M^-1 cm^-1).
This addition was repeated 20 times, and at each step, a spectrum was collected using DU 800 Spectrophotometer (Beckman Coulter).

[2] = biological target: T2, Aβ40 fibrils with structure imposed by bexarotene (bexarotene fibrils) (Homo sapiens, UniProt P05067); test: Time-resolved in situ AFM: growth rate of bexarotene fibrils after adding bexarotene; assay type: biochemical; conditions: 3 μM Aβ40, 1 μM bexarotene, 27 °C
T2 construct: host or cells: E. coli BL21(DE3)
T2 sequence (P05067 671-711): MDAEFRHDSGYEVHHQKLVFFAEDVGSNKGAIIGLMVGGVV
Experimental: To prepare samples for AFM growth rate measurements, 2 μl of second-generation normal (or bexarotene) fibrils was added to the fibril growth buffer. Urea (Sigma–Aldrich) was also added to the solution, to a final concentration of 1 M, if needed based on the experiments. The diluted fibril solution then was sonicated (6 W output) for 2 min with 15 s intervals on ice and was kept at 27 °C for at least 15 min to equilibrate the temperature. Then Aβ40 peptides were added to the fibril solution at a desired final concentration, and the total volume of the solution was adjusted to 1 ml.
Multimode atomic force microscope (Nanoscope VIII or IV; Bruker) in tapping mode was used to monitor the growth of fibrils. To collect images, 500 μl of the prepared sample was injected into the AFM liquid cell over freshly cut mica (Ted Pella, Inc) attached to a 15 mm metal disk (Ted Pella, Inc), and to avoid any leakage, an O-ring was inserted firmly to the liquid cell. The temperature in the liquid cell reached equilibrium of 27.0 ± 0.1 °C within 15 min, higher than room temperature (ca. 22 °C), because of heating by the AFM scanner and laser ([69], [70], [71]). Height, amplitude, and phase images were collected in image sizes ranged from 2 μm × 2 μm to 8 μm × 8 μm, and scan rates range between 3 and 3.5 s^−1 in most images. […]

[3] = biological target: T3, Aβ40 fibrils nucleated in the absence of bexarotene (normal fibrils) (Homo sapiens, UniProt P05067); test: Time-resolved in situ AFM: growth rate of normal Aβ40 fibrils after adding bexarotene; assay type: biochemical; conditions: 3 μM Aβ40, bexarotene 0.1, 0.5 and 1.0 μM, 27 °C, about 30 measurements per concentration
T3 construct: host or cells: E. coli BL21(DE3)
T3 sequence (P05067 671-711): as above
Experimental: We deposit fibrils preformed in the absence of bexarotene on mica and monitor the growth of the fibril tips along the fibril axis with respect to immobile reference points (Fig. 2B) in Aβ40 solutions with known concentrations. We evaluate the fibril growth rate as the slope of the time correlation of the fibril tip displacement (Fig. 2C) ([41]). […] Fibril growth comprises association of peptide chains to fibril tips.
To prepare samples for AFM growth rate measurements, 2 μl of second-generation normal (or bexarotene) fibrils was added to the fibril growth buffer. Urea (Sigma–Aldrich) was also added to the solution, to a final concentration of 1 M, if needed based on the experiments. The diluted fibril solution then was sonicated (6 W output) for 2 min with 15 s intervals on ice and was kept at 27 °C for at least 15 min to equilibrate the temperature. Then Aβ40 peptides were added to the fibril solution at a desired final concentration, and the total volume of the solution was adjusted to 1 ml. […]
To study the effect of bexarotene on normal and bexarotene fibril growth rates (Figs. 2D and 5D), first, a fibril suspension at 3 μM Aβ40 peptide concentration was prepared as described previously, without bexarotene, and the fibril growth was monitored with AFM in tapping mode for 15 to 30 min. […]

[4] = biological target: T4, Aβ40 (Homo sapiens, UniProt P05067); test: Thioflavin T (ThT) fluorescence assay of Aβ40 fibrillization; assay type: biochemical; conditions: 50 μM Aβ40, bexarotene 17 and 50 μM, 35 μM ThT, 40 mM sodium phosphate pH 7.4, 37 °C, ex 442/em 488 nm, 15 h
T4 construct: host or cells: E. coli BL21(DE3)
T4 sequence (P05067 671-711): as above
Experimental: To monitor the evolution of fibrillization and the overall impact of bexarotene, we employed the fluorescence intensity emitted at 488 nm by the dye thioflavin T (ThT) in the presence of Aβ sheets, which is expected to scale the total amyloid mass ([42]).
The stock solution of ThT was prepared by dissolving ThT (Sigma–Aldrich) in ethanol (Decon Labs) and filtering through […] polyethersulfone syringe filter. […] For control experiment, ammonium acetate solution in a volume equivalent to the peptides volume was added to the growth buffer instead of Aβ40 peptides. […] The ThT fluorescence signal was measured at 37 °C (with mixing every 5 min) every 15 min with excitation and emission at 442 and 488 nm, respectively, for a period of 15 h using SpectraMax Gemini EM Microplate Reader (Molecular Devices). The sigmoid curves were obtained by subtracting the […] of the control and normalizing all the data points to their maximum value.
Thioflavin T (ThT) fluorescence assay. […] The concentration was determined by measuring the absorbance at 416 nm using the extinction coefficient of 26.6 mM^-1 cm^-1. […] The ThT fluorescence signal was measured at 37 °C (with mixing every 5 minutes) every 15 minutes with excitation and emission at 442 nm and 488 nm, respectively, for a time period of 15 hours using SpectraMax Gemini EM Microplate Reader (Molecular Devices). […]

[5] = tested on: Aβ42; conditions: cited from earlier work

T1 sequence (P05067 671-711): as above

binding of bexarotene to Aβ40 monomers (complex formation) [1]: does not perceptibly bind
growth rate of bexarotene fibrils after adding bexarotene [2]: does not inhibit or promote the growth
average growth rate of normal fibrils after adding bexarotene [3]: does not modify the average growth rates
initial period of negligible ThT fluorescence (fibril nucleation delay) [4]: suppresses Aβ40 fibril nucleation
Compound: C=C(c1ccc(C(=O)O)cc1)c1cc2c(cc1C)C(C)(C)CCC2(C)C [bexarotene]
binding of bexarotene to Aβ42 [5]: undetectable binding
